22 compounds from PubChem BioAssay (NCI) can be followed below.

Common to all, as to assay: NCI-60 cell line screen, 48 h
Assay [1] concerns SF-295 CNS.
The subject of assay [2] is KM12 colon.
The test system of assay [3] is SK-MEL-2 melanoma.
In assay [4] the test system is HT29 colon.
Assay [5] relates to SF-268 CNS.
In assay [6] the test system is UO-31 renal.
Assay [7] deals with HCT-15 colon.
For assay [8], the system named is U251 CNS.
Assay [9] has as its system UACC-257 melanoma.
The test system of assay [10] is HL-60(TB) leukemia.

SMILES strings stand for the structures. Values joined by “and” are separate entries in the source; they are usually repeats but may differ in a detail not shown here. Identical values can stand only once.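 These data come from cells grown in 96-well plates and exposed to compound for 48 hours at five concentrations. GI50 marks 50% less growth. At the TGI there is no net growth.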

With `COc1cc2c(cc1OC)-c1c(cnn1C1OC(COC(C)=O)C(OC(C)=O)C(OC(C)=O)C1OC(C)=O)CC2` (centres undefined), the TGI in [1], in [2], in assay [3], in assay [4], in [5] and in [6] was over 100 µM throughout. Also, the TGI in assay [7], in assay [8] and in assay [9] was over 100 µM throughout.
Consider `CCCCCCN1C(=O)/C(=c2\sc3n(c2=O)C2C(NN=3)N(CC)C(=O)N2CC)c2ccccc21` (centres undefined), for which the GI50 in [1] was 1.45 µM; in assay [2], 1.46 µM; in [3], 3.06 µM; in assay [4], 1.5 µM; in assay [10], 1.96 µM; in assay [6], 1.43 µM. Further, the GI50 was 1.62 µM in assay [7] and 3.09 µM in assay [9]. In addition, the TGI in assay [1] is over 50 µM; in [2], over 50 µM; in assay [3], over 50 µM; in assay [4], over 50 µM; in [10] it was 43.9 µM; in assay [6], over 50 µM. Also, the TGI in [7] and in assay [9] was over 50 µM each time.
For the compound `CC1C(=O)N=C2C(=CN(Cc3ccccc3)c3ccccc32)C(=O)N1C` (centres undefined), the TGI in assay [2], in assay [3], in [4], in assay [5], in [6] and in [7] was over 100 µM in each case. For the same compound, the TGI in assay [8] and in assay [9] was over 100 µM each time.
In the case of `CCCCCCC(C)CC(CCCCCC)NCCOC(=O)c1ccc([N+](=O)[O-])cc1` (centres undefined), the TGI in [1] was 25.3 µM and 31.3 µM; in assay [2], 27.9 µM and 23.7 µM; in [3], 30.7 µM and 28.6 µM; in assay [4], 21.4 µM and 19 µM; in assay [5], 30.7 µM and 27.6 µM; in assay [6] it was 23.8 µM and 22.2 µM. Moreover, the TGI in assay [7] was 33.1 µM and 26.7 µM; in assay [8] it was 29.2 µM and 25.2 µM; in assay [9], 21.4 µM and 16.8 µM.
With `N#C/C(=C\c1cn(-c2ccccc2)c2ccccc12)C(=O)O`, the GI50 in assay [1] is 28.1 µM; in assay [2], 30.1 µM; in assay [3] it was 28 µM; in assay [4], 53.1 µM; in assay [5], 43.4 µM; in assay [6] it was 23.8 µM. Moreover, the GI50 in assay [7] was 30.7 µM; in assay [8] it was 35 µM; in assay [9], over 100 µM. The TGI in assay [1], in assay [2], in assay [3], in assay [4], in [5] and in assay [6] was over 100 µM throughout. Besides, the TGI in assay [7], in assay [8] and in assay [9] was over 100 µM each time.
For the compound `COc1ccc(-c2ccc(/C=N/n3cn[nH]c3=S)o2)c([N+](=O)[O-])c1`, the GI50 is 36 µM in assay [1]; 27.2 µM in assay [2]; 32.6 µM in [4]; 29.1 µM in [5]; 14.5 µM in assay [10]; 54.4 µM in assay [6]. In addition, in [7], the GI50 was 26 µM. For the same compound, the TGI in [1] was over 100 µM; in assay [2], over 100 µM; in assay [4], over 100 µM; in assay [5], over 100 µM; in [10], 33.7 µM; in assay [6], over 100 µM. Also, the TGI in assay [7] was over 100 µM.
On to `COc1ccc(C2(CN(C)C)COc3cc(OC)c(OC)cc3C2=O)cc1OC` (centres undefined), for which the TGI in assay [1] is over 100 µM; in assay [2], over 100 µM; in assay [4], over 100 µM; in [5] it was over 100 µM; in assay [10], 48.2 µM; in [6], over 100 µM. Besides, the TGI in assay [8] and in assay [9] was over 100 µM throughout.
For the compound `Cn1c2ccccc2c2c(=O)n(CCCC(=O)NCC(=O)OC(=NC3CCCCC3)NC3CCCCC3)c3c(-c4ccccc4)nnn3c21`, the GI50 in [1] was over 100 µM; in [2], 31.3 µM; in assay [3] it was 33.1 µM; in [5], 15 µM; in [10], 2.86 µM; in assay [6] it was 31.3 µM. For the same compound, the GI50 in [7] was 10.8 µM; in assay [8], 12.4 µM; in assay [9] it was 66.4 µM. For the same compound, the TGI was over 100 µM in [1]; over 100 µM in assay [2]; over 100 µM in assay [3]; over 100 µM in assay [5]; 8.31 µM in assay [10]; over 100 µM in [6]. For the same compound, the TGI in assay [7] was over 100 µM; in assay [8] it was 38.3 µM; in assay [9] it was over 100 µM.
With `Cc1cc2c(cn1)C(=O)OCC2`, the TGI in assay [1], in assay [2], in assay [4], in [5], in [10] and in assay [6] was over 100 µM each time. Also, the TGI in assay [8] and in [9] was over 100 µM throughout.
Consider `O=C1N=C2c3c(sc4c3CCCC4)N=CN2C1N=Nc1ccc(Cl)cc1` (centres undefined), for which the GI50 in assay [1] was 25.4 µM; in [2] it was 13.6 µM; in assay [3] it was over 100 µM; in assay [4] it was 11.7 µM; in assay [5], 34.6 µM; in assay [6], 39.3 µM. The GI50 in assay [7] was 37.2 µM; in [8] it was 20.2 µM; in assay [9], 34.1 µM. Also, the TGI in assay [1] is 86.2 µM; in assay [2], 44 µM; in [3], over 100 µM; in [4], 39.8 µM; in assay [5], over 100 µM; in assay [6], over 100 µM. The TGI in [7], in assay [8] and in assay [9] was over 100 µM each time.
`CNC(=O)c1cc(Oc2ccc3nc(NC(=O)Nc4ccc(Cl)c(Cl)c4)sc3c2)ccn1`: the GI50 in [1] was 1.53 µM; in [2] it was 3 µM; in assay [3], 2.56 µM; in [5] it was 1.98 µM; in [10], over 100 µM; in [6], 2.08 µM. The GI50 in assay [7] was 3.71 µM; in assay [8], 1.83 µM. Moreover, the TGI in assay [1] was 3.13 µM; in assay [2], over 100 µM; in assay [3], 5.97 µM; in [5] it was 4.21 µM; in [10], over 100 µM; in [6] it was 3.96 µM. Besides, the TGI was over 100 µM in assay [7] and 3.46 µM in [8].
Consider `c1ccc(-c2nc(Nc3ccc(-c4nc5ccccc5[nH]4)cc3)nc(N3CCOCC3)n2)cc1`, for which the GI50 in [1] is 1.25 µM; in [2], 1.62 µM; in [3] it was 1.97 µM; in assay [4], 0.646 µM; in assay [5], 1.64 µM; in assay [10], 0.031 µM. The GI50 is 1.32 µM in [6] and 0.535 µM in assay [8]. Moreover, the TGI in assay [1] stood at 2.84 µM; in assay [2] it was 3.19 µM; in [3], 3.59 µM; in assay [4] it was 2.19 µM; in [5] it was 3.24 µM; in [10] it was 0.601 µM. The TGI in assay [6] stood at 2.91 µM; in assay [8], 1.76 µM.
Consider `CC1(C)OC2C(CO)OC(n3ccc(=O)[nH]c3=O)C2O1` (centres undefined), for which the TGI in [1], in assay [3], in assay [5], in assay [10], in assay [6] and in assay [7] was over 100 µM in each case. Moreover, the TGI in assay [8] and in assay [9] was over 100 µM in each case.
As for `O=C(CNC(=O)c1cccc2ccccc12)Nc1ccccc1Oc1cccc(O)c1`, the GI50 is 2.2 µM in assay [1]; 2.18 µM in assay [2]; 21.4 µM in assay [4]; 20.9 µM in assay [5]; 1.31 µM in [10]; 16.5 µM in assay [6]. Moreover, the figures for the GI50 in assay [7], in assay [8] and in [9] were 3.14 µM, 8.41 µM and over 25 µM, respectively. The TGI in assay [1] is over 25 µM; in assay [2] it was over 25 µM; in [4], over 25 µM; in assay [5], over 25 µM; in assay [10] it was 10.6 µM; in assay [6], over 25 µM. Further, the TGI in assay [7], in assay [8] and in [9] was over 25 µM throughout.
As for `C[C@]12CC[C@H]3[C@@H](CCC4=CC(=O)CC[C@@H]43)[C@@H]1CC[C@@H]2OC1(O)C(=O)c2ccccc2C1=O`, the TGI in [1] is over 100 µM; in assay [2] it was over 100 µM; in assay [3], over 100 µM; in assay [4], over 100 µM; in assay [5], over 100 µM; in assay [6], 78.3 µM. Further, the TGI in [7], in [8] and in assay [9] was over 100 µM each time.
For `O=S(=O)(CC1=NC2C=CC=CC2N=C1)NCc1ccccc1` (centres undefined), the TGI in assay [1], in [2], in [3], in [4], in assay [5] and in assay [10] was over 100 µM each time. Also, the TGI in assay [7] and in assay [8] was over 100 µM each time.
Take `OCCN(CO)CN(CN(CO)CCO)c1nc(N(CN(CO)CCO)CN(CO)CCO)nc(N(CN(CO)CCO)CN(CO)CCO)n1`: the GI50 in assay [1] was 1.39 ng/mL; in [2], 1.21 ng/mL; in assay [4], 0.911 ng/mL; in [5], 1.35 ng/mL; in [10] it was 0.55 ng/mL; in [9], 1.42 ng/mL. For the same compound, the TGI in assay [1] turned out to be 3.94 ng/mL; in assay [2], 2.8 ng/mL; in assay [4], 15.2 ng/mL; in [5], 2.93 ng/mL; in assay [10], 0.859 ng/mL; in assay [9] it was 3.21 ng/mL.
For the compound `C/C(=N\NC(N)=S)c1ccc(/C(C)=N/NC(N)=S)cc1`, the TGI in assay [1], in assay [2], in [4], in assay [5], in assay [10] and in assay [6] was over 100 µM in each case. Further, the TGI in [7], in assay [8] and in assay [9] was over 100 µM throughout.
On to `CCCCCCCCCCCCCCCC(=O)NC1CCc2cc(O)c(O)c(O)c2-c2ccc(SC)c(=O)cc21` (centres undefined), for which the TGI in assay [1] was 13.7 µM; in assay [2], 20.3 µM; in [4], 27.8 µM; in assay [5] it was 23 µM; in assay [10], over 36.7 µM; in assay [6], 22.6 µM. The TGI in assay [7] is 15.5 µM; in assay [8] it was 12.6 µM; in assay [9] it was 26.7 µM.
With `OCCNc1nc(NCCO)nc(Nc2ccc(C3=NN(c4cc(Cl)cc(Cl)c4)C(c4ccc(Cl)cc4)C3)cc2)n1` (centres undefined), the GI50 in assay [1] is 1.47 µM; in [2], 1.85 µM; in assay [3], 2.13 µM; in assay [5], 1.86 µM; in assay [10], 1.86 µM; in [6] it was 1.63 µM. The GI50 in [7] was 1.48 µM; in [8], 1.51 µM; in [9], 1.95 µM. In addition, the TGI in assay [1] came out at 2.85 µM; in assay [2] it was 4 µM; in [3], 4.57 µM; in assay [5], 3.79 µM; in [10] it was 3.85 µM; in assay [6], 3.16 µM. The TGI came to 2.8 µM in assay [7], 3.04 µM in assay [8] and 3.78 µM in assay [9].
For the compound `COc1ccc(Cl)cc1N1C(=O)C(Cl)=C(Nc2cccc(O)c2)C1=O`, the GI50 in [1] is 17.1 µM; in [2], 28.7 µM; in assay [4], 19.9 µM; in assay [5], 13.2 µM; in [6], 13.2 µM; in assay [7], 14.4 µM. Besides, the GI50 in assay [8] is 17.5 µM. Also, the TGI was 82.9 µM in [1]; over 100 µM in assay [2]; 59.9 µM in assay [4]; 30.7 µM in assay [5]; 26.6 µM in assay [6]; 29.1 µM in assay [7]. Moreover, the TGI in [8] amounted to 48 µM.
For `O=C(CC(=O)Nc1ccc(Cl)cc1)NNCC(=O)Nc1nc(-c2ccccc2)cs1`, the TGI in assay [1], in assay [2], in assay [4], in [5], in assay [10] and in assay [8] was over 100 µM each time.
